Assay results from US12065428B2, “Anti-viral compounds” (Aligos Therapeutics, Inc., priority 2021, dated 2024).
Read-outs that look alike come from different tables or passages of the source.

Assays:
SARS-Cov-2 3CLpro = molecular target: T1, SARS-Cov-2 3CLpro (Severe acute respiratory syndrome coronavirus 2, UniProt P0DTD1); assay: SARS-Cov-2 3CLpro and HRV3C duplex assay (SAMDI-MS): 3CLpro; assay type: biochemical; conditions: 3CLpro, duplex assay, 30 mins preincubation; class symbols; read-out: SARS-Cov-2 IC50
T1 construct: SARS-Cov-2 3CLpro and HRV3C Duplex Assay

HRV3C = molecular target: T2, HRV3C (Human rhinovirus 14, UniProt P03303); assay: biochemical; conditions: read-out: HRV IC50
T2 construct: SARS-Cov-2 3CLpro and HRV3C Duplex Assay

[1] = system: human beta-coronavirus OC43; assay: OC43 coronavirus assay in HeLa cells (cytopathic effect, cell-titer-glo); assay type: cell-based
[2] = Cytotoxicity plates without OC43 virus in HeLa cells; assay type: cell-based; conditions: human, HeLa cells (uninfected)
Description: The human beta-coronavirus OC43 was purchased from ATCC (Manassas, VA) and propagated using HCT-8 human colorectal epithelial cells (ATCC). HeLa human cervical epithelial cells (ATCC) were used as susceptible host cell lines and were cultured using EMEM media, supplemented with 10% fetal bovine serum (FBS), 1% (v/v) penicillin/streptomycin (P/S), 1% (v/v) HEPES and 1% (v/v) cellgro Glutagro™ supplement (all Corning, Manassas, VA) at 37° C. For the OC43 antiviral assay, 1.5×10^4 HeLa cells per well were plated in 100 μL complete media in white 96-well plates with clear bottoms at 37° C. for up to 24 h to facilitate attachment and allow cells to recover from seeding stresses. Next day, the cell culture medium was removed. Serially diluted compounds in 100 μL assay media (EMEM, 2% FBS, 1% P/S, 1% cellgro Glutagro™ supplement, 1% HEPES) were added to the cells and incubated for 4H at 37° C. in a humidified 5% CO2 incubator. 100 μL of OC43 virus stock was diluted to a concentration known to produce optimal cytopathic effect, inducing 80-90% reduction in cell viability. 96-well plates were incubated for 6 (HeLa) days at 33° C.; each plate contains uninfected control wells as well as virus-infected wells that were not treated with compound. Cytotoxicity plates without the addition of OC43 virus were carried out in parallel. At the end of the incubation period, 100 μL cell culture supernatant was replaced with 100 μL cell-titer-glo reagent (Promega, Madison, WI) and incubated for at least 10 min at rt prior to measuring luminescence. Luminescence was measured on a Perkin Elmer (Waltham, MA) Envision plate reader. Antiviral % inhibition was calculated as follows: [(Compound treated cells infected sample)−(no compound infected control)]/[(Uninfected control)−(no compound infected control)]*100; Using GraphPad (San Diego, CA) prism software version 8.3.1, the antiviral dose-response plot was generated as a sigmoidal fit, log(inhibitor) vs response-variable slope (four parameters) model and the EC50 was calculated which is the predicted compound concentration corresponding to a 50% inhibition of the viral cytopathic effect.

[3] = system: SARS-CoV-2-GHB-03021/2020; assay: microbe, parasite or virus in culture; assay type: cell-based
human cathepsin L = molecular target: T3, human cathepsin L (Homo sapiens, UniProt P07711); assay: Cathepsin L assay (Z-FR-AMC fluorescence); assay type: biochemical; conditions: 10 pM human cathepsin L, 30 mins preincubation; class symbols
T3 construct: purchased R&D Systems
Description: For the cathepsin L assay, 10 pM of human cathepsin L (R&D Systems; Minneapolis, MN) was preincubated for 30 mins with test compounds. Reactions were initiated by the addition of a peptide substrate Z-FR-AMC (final concentration 2 μM, Anaspec; Fremont, CA). Fluorescence was measured at 2-minute intervals for 30 mins using a 355/460 excitation/emission filter module on an Envision plate reader (Perkin Elmer; Waltham, MA). The IC50 values were calculated for each assay by fitting the curves using a four-parameter equation in GraphPad Prism.

[4] = HRV3C, duplex assay, 30 mins preincubation, class symbols
[5] = Betacoronavirus 1, 144 h, OC43 in HeLa cells, 6 days at 33° C., class symbols, read-out: EC50
[6] = Severe acute respiratory syndrome coronavirus 2, Vero C1008, 96 h; read-out: VeroE6 + CP (EC50)

T3 sequence (P07711 114-333): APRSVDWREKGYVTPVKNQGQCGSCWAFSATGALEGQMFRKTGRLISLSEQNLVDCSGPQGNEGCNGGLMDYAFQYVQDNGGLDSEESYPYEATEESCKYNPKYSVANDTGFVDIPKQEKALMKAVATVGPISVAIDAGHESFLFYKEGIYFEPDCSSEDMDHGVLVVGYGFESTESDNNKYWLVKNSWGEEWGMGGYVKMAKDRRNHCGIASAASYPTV
T2 sequence (P03303 1538-1719): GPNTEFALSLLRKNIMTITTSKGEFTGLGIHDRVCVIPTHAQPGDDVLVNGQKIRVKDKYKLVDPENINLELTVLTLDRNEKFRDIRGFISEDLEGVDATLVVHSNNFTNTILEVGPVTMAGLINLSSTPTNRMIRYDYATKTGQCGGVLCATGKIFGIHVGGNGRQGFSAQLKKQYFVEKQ

| Structure (SMILES) | IC50 (SARS-Cov-2 3CLpro) | IC50 (HRV3C; [4]) | EC50 [1, 5] | CC50 at 6 days ([2]; class symbols) | EC50 [3, 6] | IC50 (human cathepsin L) | IC50 (HRV3C) | CC50 at 6 days ([2]; numeric bound, unit inferred) | EC50 ([1]; Betacoronavirus 1, OC43, HeLa) | EC50 ([3]; Severe acute respiratory syndrome coronavirus 2, Vero C1008, 96 h, read-out: VeroE6 + CP (EC50)) |
| --- | --- | --- | --- | --- | --- | --- | --- | --- | --- | --- |
| Cc1ccc2cc(C(=O)N3CCC4(CC4)C[C@H]3C(=O)N[C@@H](C[C@@H]3CCNC3=O)C(=O)C(=O)NC3CC3)sc2c1 [Compound 15, (3S)—N-cyclopropyl-3-{[(5S)-6-(6-methyl-1-benzothiophene-2-carbonyl)-6-azaspiro[2.5]octan-5-yl]formamido}-2-oxo-4-[(3S)-2-oxopyrrolidin-3-yl]butanamide] | < 20 nM | 2000 to 20000 nM | 100 to 1000 nM | ≥ 100000 nM | < 1000 nM | 1000 to 10000 nM | – | – | – | – |
| Cn1c(C(=O)N2CCC3(CC3)C[C@H]2C(=O)N[C@@H](C[C@@H]2CCNC2=O)C(=O)C(=O)NC2CC2)nc2ccccc21 [Example 4] | 20 to 200 nM | 2000 to 20000 nM | 1000 to 10000 nM | ≥ 100000 nM | 1000 to 10000 nM | ≥ 10000 nM | – | – | – | – |
| CC(C)n1c(C(=O)N2CCC3(CC3)C[C@H]2C(=O)N[C@@H](C[C@@H]2CCNC2=O)C(=O)C(=O)NC2CC2)cc2ccccc21 [Compound 27] | < 20 nM | 200 to 2000 nM | 100 to 1000 nM | ≥ 100000 nM | < 1000 nM | ≥ 10000 nM | – | – | – | – |
| Cn1nc2ccccc2c1C(=O)N1CCC2(CC2)C[C@H]1C(=O)N[C@@H](C[C@@H]1CCNC1=O)C(=O)C(=O)NC1CC1 [Example 7] | < 20 nM | 200 to 2000 nM | 100 to 1000 nM | ≥ 100000 nM | 1000 to 10000 nM | 1000 to 10000 nM | – | – | – | – |
| O=C(NC1CC1)C(=O)[C@H](C[C@@H]1CCNC1=O)NC(=O)[C@@H]1CC2(CCN1C(=O)[C@@H]1C[C@]13CCCc1ccccc13)CC2 (relative stereo) [Compound 34B] | 20 to 200 nM | – | 100 to 1000 nM | 10000 to 100000 nM | < 1000 nM | 1000 to 10000 nM | – | – | – | – |
| CC(C)(C)[C@H](NC(=O)C(F)(F)F)C(=O)N1CCC2(CC2)C[C@H]1C(=O)N[C@H](C#N)C[C@@H]1CCNC1=O [Compound 35, (S)—N—((S)-1-cyano-2-((S)-2-oxopyrrolidin-3-yl)ethyl)-6-((S)-3,3-dimethyl-2-(2,2,2-trifluoroacetamido)butanoyl)-6-azaspiro[2.5]octane-5-carboxamide] | < 20 nM | – | 100 to 1000 nM | ≥ 100000 nM | < 1000 nM | ≥ 10000 nM | > 10000 nM | – | – | – |
| CC(C)(C)[C@H](NC(=O)C(F)(F)F)C(=O)N1CCC2(C[C@H]1C(=O)N[C@H](C#N)C[C@@H]1CCNC1=O)CC(F)(F)C2 [Compound 51, (S)—N—((S)-1-cyano-2-((S)-2-oxopyrrolidin-3-yl)ethyl)-7-((S)-3,3-dimethyl-2-(2,2,2-trifluoroacetamido)butanoyl)-2,2-difluoro-7-azaspiro[3.5]nonane-6-carboxamide] | 200 to 2000 nM | – | 1000 to 10000 nM | – | 1000 to 10000 nM | ≥ 10000 nM | > 10000 nM | > 100000 nM | – | – |
| O=C(NC1CC1)C(=O)C(C[C@@H]1CCNC1=O)NC(=O)[C@@H]1CC2(CCN1C(=O)c1cc3cccc(Cl)c3s1)CC2 (stereo partly drawn) [Example 12, (5S)-6-(7-chlorobenzo[b]thiophene-2-carbonyl)-N-(4-(cyclopropylamino)-3,4-dioxo-1-((S)-2-oxopyrrolidin-3-yl)butan-2-yl)-6-azaspiro[2.5]octane-5-carboxamide] | < 20 nM | 20 to 200 nM | 100 to 1000 nM | 10000 to 100000 nM | < 1000 nM | 1000 to 10000 nM | – | – | – | – |
| O=C(NC1CC1)C(=O)[C@H](C[C@@H]1CCNC1=O)NC(=O)[C@@H]1CC2(CCN1C(=O)c1csc(-c3ccccc3)n1)CC2 [Compound 40] | 200 to 2000 nM | 200 to 2000 nM | 100 to 1000 nM | – | 1000 to 10000 nM | ≥ 10000 nM | – | > 100000 nM | – | – |
| O=C(NC1CC1)C(=O)[C@H](C[C@@H]1CCNC1=O)NC(=O)[C@@H]1CC2(CCN1C(=O)c1csc(-c3cccc(Cl)c3)n1)CC2 [Compound 45] | 20 to 200 nM | 2000 to 20000 nM | 100 to 1000 nM | 10000 to 100000 nM | < 1000 nM | ≥ 10000 nM | – | – | – | – |
| O=C(NC1CC1)C(=O)[C@H](C[C@@H]1CCNC1=O)NC(=O)[C@@H]1CC2(CCN1C(=O)c1cn3ccccc3n1)CC2 [Compound 20, (3S)—N-cyclopropyl-3-{[(5S)-6-{imidazo[1,2-a]pyridine-2-carbonyl}-6-azaspiro[2.5]octan-5-yl]formamido}-2-oxo-4-[(3S)-2-oxopyrrolidin-3-yl]butanamide] | 200 to 2000 nM | – | – | ≥ 100000 nM | > 50000 nM | ≥ 10000 nM | > 10000 nM | – | > 10000 nM | – |
| O=C(NC1CC1)C(=O)C(C[C@@H]1CCNC1=O)NC(=O)[C@@H]1[C@@H]2C[C@@H](CC23CC3)N1C(=O)c1cc2ccccc2s1 (stereo partly drawn) [Compound 25, 3-[(1R,4S,6S)-5-(1-benzothiophene-2-carbonyl)-5-azaspiro[bicyclo[2.2.1]heptane-2,1′-cyclopropan]-6-ylformamido]-N-cyclopropyl-2-oxo-4-[(3S)-2-oxopyrrolidin-3-yl]butanamide] | 20 to 200 nM | 200 to 2000 nM | 1000 to 10000 nM | ≥ 100000 nM | 1000 to 10000 nM | ≥ 10000 nM | – | – | – | – |
| Cn1cc(C(=O)N2CCC3(CC3)C[C@H]2C(=O)N[C@@H](C[C@@H]2CCNC2=O)C(=O)C(=O)NC2CC2)c2ccccc21 [Example 11] | 20 to 200 nM | < 20 nM | 1000 to 10000 nM | ≥ 100000 nM | 1000 to 10000 nM | 1000 to 10000 nM | – | – | – | – |
| O=C(NC1CC1)C(=O)[C@H](C[C@@H]1CCNC1=O)NC(=O)[C@@H]1CC2(CCN1C(=O)[C@H]1C[C@@]13CCCc1ccccc13)CC2 (relative stereo) [Compound 34A, (S)—N—((S)-4-(cyclopropylamino)-3,4-dioxo-1-((S)-2-oxopyrrolidin-3-yl)butan-2-yl)-6-((1S*,2S*)-3′,4′-dihydro-2′H-spiro[cyclopropane-1,1′-naphthalene]-2-carbonyl)-6-azaspiro[2.5]octane-5-carboxamide] | 200 to 2000 nM | – | 100 to 1000 nM | ≥ 100000 nM | – | 1000 to 10000 nM | – | – | – | 1000 to 10000 nM |
| O=C(NC1CC1)C(=O)[C@H](C[C@@H]1CCNC1=O)NC(=O)[C@@H]1CC2(CCN1C(=O)[C@@H]1C[C@@H]1c1ccccc1)CC2 [Compound 47] | 2000 to 20000 nM | 200 to 2000 nM | – | – | > 50000 nM | ≥ 10000 nM | – | > 100000 nM | > 10000 nM | – |
| Cn1nc(C(=O)N2CCC3(CC3)C[C@H]2C(=O)N[C@@H](C[C@@H]2CCNC2=O)C(=O)C(=O)NC2CC2)c2ccccc21 [Example 10] | 20 to 200 nM | 200 to 2000 nM | 1000 to 10000 nM | ≥ 100000 nM | 1000 to 10000 nM | ≥ 10000 nM | – | – | – | – |
| COc1cccc(-c2csc(C(=O)N3CCC4(CC4)C[C@H]3C(=O)N[C@@H](C[C@@H]3CCNC3=O)C(=O)C(=O)NC3CC3)n2)c1 [Compound 36] | 200 to 2000 nM | 2000 to 20000 nM | 100 to 1000 nM | – | 1000 to 10000 nM | ≥ 10000 nM | – | > 100000 nM | – | – |
| O=C(NC1CC1)C(=O)[C@H](C[C@@H]1CCNC1=O)NC(=O)[C@@H]1CC2(CCN1C(=O)c1nc(-c3ccccc3Cl)cs1)CC2 [Compound 43] | 200 to 2000 nM | – | 100 to 1000 nM | – | 1000 to 10000 nM | ≥ 10000 nM | > 10000 nM | > 100000 nM | – | – |
